Assay results from the NIST ThermoML archive (doi:10.1021/je060247x).
± gives the expanded uncertainty stated by the source.

Conditions: Liquid

CCCCCCn1cc[n+](C)c1.F[P-](F)(F)(F)(F)F [1-hexyl-3-methylimidazolium hexafluorophosphate]
mass density [kg/m3]
Conditions | 100 kPa | 1000 kPa | 2000 kPa | 3000 kPa | 4000 kPa | 5000 kPa | 10000 kPa
293.15 K | 1299.8 ± 3.1 | 1300.3 ± 3.3 | 1300.8 ± 3.4 | 1301.4 ± 3.6 | 1301.9 ± 3.7 | 1302.4 ± 3.8 | 1304.9 ± 4.6
303.15 K | 1290.6 ± 3.1 | 1291.1 ± 3.2 | 1291.7 ± 3.3 | 1292.2 ± 3.5 | 1292.7 ± 3.6 | 1293.2 ± 3.8 | 1295.8 ± 4.5
313.15 K | 1281.5 ± 3 | 1282 ± 3.1 | 1282.6 ± 3.3 | 1283.1 ± 3.4 | 1283.7 ± 3.5 | 1284.3 ± 3.7 | 1287 ± 4.4
323.15 K | 1272.7 ± 3 | 1273.2 ± 3.1 | 1273.9 ± 3.2 | 1274.5 ± 3.3 | 1275 ± 3.5 | 1275.6 ± 3.6 | 1278.5 ± 4.3
333.15 K | 1264.2 ± 2.9 | 1264.8 ± 3 | 1265.4 ± 3.1 | 1266 ± 3.3 | 1266.6 ± 3.4 | 1267.3 ± 3.5 | 1270.3 ± 4.2
343.15 K | 1256.1 ± 2.8 | 1256.7 ± 3 | 1257.3 ± 3.1 | 1258 ± 3.2 | 1258.6 ± 3.3 | 1259.2 ± 3.5 | 1262 ± 4.1
353.15 K | 1248 ± 2.8 | 1248.6 ± 2.9 | 1249.2 ± 3 | 1249.9 ± 3.1 | 1250.5 ± 3.3 | 1251.2 ± 3.4 | 1254.2 ± 4
363.15 K | 1240.6 ± 2.7 | 1241.2 ± 2.9 | 1242 ± 3 | 1242.6 ± 3.1 | 1243.3 ± 3.2 | 1244 ± 3.3 | 1247.2 ± 3.9
373.15 K | 1233.4 ± 2.7 | 1234.1 ± 2.8 | 1234.9 ± 2.9 | 1235.6 ± 3 | 1236.3 ± 3.2 | 1237 ± 3.3 | 1240.3 ± 3.9
383.15 K | 1226.4 ± 2.7 | 1227.2 ± 2.8 | 1227.9 ± 2.9 | 1228.7 ± 3 | 1229.4 ± 3.1 | 1230.1 ± 3.2 | 1233.6 ± 3.8
393.15 K | 1219.4 ± 2.6 | 1220.1 ± 2.7 | 1220.9 ± 2.8 | 1221.7 ± 2.9 | 1222.5 ± 3 | 1223.3 ± 3.2 | 1227 ± 3.7

CCCCCCCC[n+]1ccn(C)c1.F[P-](F)(F)(F)(F)F [1-octyl-3-methylimidazolium hexafluorophosphate]
mass density [kg/m3]
Conditions | 100 kPa | 1000 kPa | 2000 kPa | 3000 kPa | 4000 kPa | 5000 kPa | 10000 kPa
293.15 K | 1242.4 ± 2.8 | 1242.9 ± 2.9 | 1243.5 ± 3 | 1244.1 ± 3.1 | 1244.6 ± 3.2 | 1245.1 ± 3.3 | 1247.8 ± 3.9
303.15 K | 1233.8 ± 2.7 | 1234.4 ± 2.8 | 1235 ± 2.9 | 1235.6 ± 3 | 1236.1 ± 3.1 | 1236.7 ± 3.3 | 1239.5 ± 3.8
313.15 K | 1225.3 ± 2.6 | 1225.9 ± 2.7 | 1226.5 ± 2.8 | 1227.1 ± 3 | 1227.7 ± 3.1 | 1228.3 ± 3.2 | 1231.1 ± 3.7
323.15 K | 1217.6 ± 2.6 | 1218.2 ± 2.7 | 1218.8 ± 2.8 | 1219.4 ± 2.9 | 1220 ± 3 | 1220.6 ± 3.1 | 1223.4 ± 3.7
333.15 K | 1209.1 ± 2.5 | 1209.7 ± 2.6 | 1210.3 ± 2.7 | 1211 ± 2.8 | 1211.6 ± 2.9 | 1212.2 ± 3 | 1215.1 ± 3.6
343.15 K | 1201 ± 2.5 | 1201.6 ± 2.6 | 1202.3 ± 2.7 | 1203 ± 2.8 | 1203.6 ± 2.9 | 1204.3 ± 3 | 1207.4 ± 3.5
353.15 K | 1193.6 ± 2.4 | 1194.3 ± 2.5 | 1195 ± 2.6 | 1195.7 ± 2.7 | 1196.3 ± 2.8 | 1197.1 ± 2.9 | 1200.3 ± 3.4
363.15 K | 1186.2 ± 2.4 | 1186.9 ± 2.5 | 1187.6 ± 2.6 | 1188.3 ± 2.7 | 1189 ± 2.7 | 1189.7 ± 2.8 | 1193 ± 3.3
373.15 K | 1179.2 ± 2.3 | 1179.9 ± 2.4 | 1180.6 ± 2.5 | 1181.3 ± 2.6 | 1182 ± 2.7 | 1182.7 ± 2.8 | 1186.1 ± 3.2
383.15 K | 1172.7 ± 2.3 | 1173.5 ± 2.4 | 1174.2 ± 2.5 | 1174.9 ± 2.6 | 1175.6 ± 2.6 | 1176.3 ± 2.7 | 1179.8 ± 3.2
393.15 K | 1166 ± 2.3 | 1166.8 ± 2.3 | 1167.5 ± 2.4 | 1168.3 ± 2.5 | 1169.1 ± 2.6 | 1169.8 ± 2.7 | 1173.5 ± 3.1

CCCCCCCC[n+]1ccn(C)c1.F[B-](F)(F)F [1-methyl-3-octylimidazolium tetrafluoroborate]
mass density [kg/m3]
Conditions | 100 kPa | 1000 kPa | 2000 kPa | 3000 kPa | 4000 kPa | 5000 kPa | 10000 kPa
293.15 K | 1108.7 ± 1 | 1109.1 ± 1 | 1109.6 ± 1 | 1110 ± 1 | 1110.5 ± 1.1 | 1110.9 ± 1.1 | 1113.1 ± 1.2
303.15 K | 1100.7 ± 0.9 | 1101.1 ± 1 | 1101.6 ± 1 | 1102.1 ± 1 | 1102.6 ± 1 | 1103.1 ± 1.1 | 1105.4 ± 1.2
313.15 K | 1092.9 ± 0.9 | 1093.4 ± 0.9 | 1093.9 ± 1 | 1094.4 ± 1 | 1094.9 ± 1 | 1095.4 ± 1 | 1097.9 ± 1.2
323.15 K | 1085.4 ± 0.9 | 1085.9 ± 0.9 | 1086.4 ± 0.9 | 1087 ± 1 | 1087.5 ± 1 | 1088 ± 1 | 1090.6 ± 1.1
333.15 K | 1078.2 ± 0.9 | 1078.7 ± 0.9 | 1079.3 ± 0.9 | 1079.8 ± 0.9 | 1080.3 ± 1 | 1080.9 ± 1 | 1083.5 ± 1.1
343.15 K | 1071.4 ± 0.9 | 1072 ± 0.9 | 1072.5 ± 0.9 | 1073.1 ± 0.9 | 1073.7 ± 0.9 | 1074.2 ± 1 | 1076.9 ± 1.1
353.15 K | 1064.7 ± 0.9 | 1065.2 ± 0.9 | 1065.8 ± 0.9 | 1066.4 ± 0.9 | 1067 ± 0.9 | 1067.6 ± 0.9 | 1070.3 ± 1
363.15 K | 1058.6 ± 0.8 | 1059.1 ± 0.9 | 1059.8 ± 0.9 | 1060.4 ± 0.9 | 1061 ± 0.9 | 1061.6 ± 0.9 | 1064.4 ± 1
373.15 K | 1052.4 ± 0.8 | 1053 ± 0.8 | 1053.7 ± 0.9 | 1054.3 ± 0.9 | 1054.9 ± 0.9 | 1055.5 ± 0.9 | 1058.5 ± 1
383.15 K | 1046.6 ± 0.8 | 1047.2 ± 0.8 | 1047.9 ± 0.8 | 1048.5 ± 0.9 | 1049.2 ± 0.9 | 1049.8 ± 0.9 | 1052.9 ± 0.9
393.15 K | 1040.9 ± 0.8 | 1041.5 ± 0.8 | 1042.1 ± 0.8 | 1042.8 ± 0.8 | 1043.4 ± 0.9 | 1044.1 ± 0.9 | 1047.2 ± 0.9
